These molecules were tested against T1, purified human HDAC6 (Homo sapiens, UniProt Q9UBN7) (assay: HDAC6 Enzyme Assay). Conditions: compound concentration 0.37 μM, read-out: Percent Inhibition.
T1 construct: purchased BPS Bioscience 5006
T1 sequence (Q9UBN7 1-1215): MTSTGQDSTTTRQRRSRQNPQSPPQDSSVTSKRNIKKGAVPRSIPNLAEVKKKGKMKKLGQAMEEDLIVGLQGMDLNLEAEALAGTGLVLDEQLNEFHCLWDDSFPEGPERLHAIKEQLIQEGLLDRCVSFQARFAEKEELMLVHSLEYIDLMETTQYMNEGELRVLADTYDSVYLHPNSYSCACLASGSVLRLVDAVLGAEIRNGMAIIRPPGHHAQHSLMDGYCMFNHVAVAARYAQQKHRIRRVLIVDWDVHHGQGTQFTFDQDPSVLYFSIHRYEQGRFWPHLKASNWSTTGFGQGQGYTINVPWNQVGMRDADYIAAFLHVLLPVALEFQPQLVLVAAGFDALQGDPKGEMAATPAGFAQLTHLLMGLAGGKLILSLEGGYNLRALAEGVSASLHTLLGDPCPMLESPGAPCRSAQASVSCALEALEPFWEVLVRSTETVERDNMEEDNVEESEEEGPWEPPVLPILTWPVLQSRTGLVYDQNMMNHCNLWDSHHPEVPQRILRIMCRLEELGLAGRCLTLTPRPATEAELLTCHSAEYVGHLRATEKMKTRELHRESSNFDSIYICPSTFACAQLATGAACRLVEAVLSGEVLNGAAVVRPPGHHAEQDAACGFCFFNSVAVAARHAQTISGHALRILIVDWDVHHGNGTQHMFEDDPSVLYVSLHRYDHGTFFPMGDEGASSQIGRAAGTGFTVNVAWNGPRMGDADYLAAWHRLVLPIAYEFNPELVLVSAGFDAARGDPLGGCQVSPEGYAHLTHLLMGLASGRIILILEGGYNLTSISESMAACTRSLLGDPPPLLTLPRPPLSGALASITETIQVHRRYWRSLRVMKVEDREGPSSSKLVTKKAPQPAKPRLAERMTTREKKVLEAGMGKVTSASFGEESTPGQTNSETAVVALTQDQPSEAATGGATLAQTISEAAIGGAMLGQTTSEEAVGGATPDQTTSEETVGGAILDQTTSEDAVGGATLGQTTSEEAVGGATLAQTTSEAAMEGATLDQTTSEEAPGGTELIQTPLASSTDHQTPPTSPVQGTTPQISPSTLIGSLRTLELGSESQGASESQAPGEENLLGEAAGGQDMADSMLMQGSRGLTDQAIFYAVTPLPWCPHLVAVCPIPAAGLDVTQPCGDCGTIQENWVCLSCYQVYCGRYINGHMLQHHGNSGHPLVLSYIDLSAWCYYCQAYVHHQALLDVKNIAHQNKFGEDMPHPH
Format: biochemical
How it was run: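 Readout is AMC fluorescence (Ex 340 nm, Em 460 nm) after trypsin cleavage of the deacetylated Ac-Arg-Gly-Lys(Ac)-AMC product. Reaction: purified human HDAC6, compound or vehicle, 1 hour, 30° C, quenched by trichostatin A. Single-concentration percent inhibition or IC50 calculated versus DMSO-treated samples.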
With `O=C(NO)c1ccc2ccn(Cc3cccc(-n4cccn4)c3)c(=O)c2c1` [Compound I-82, N-hydroxy-1-oxo-2-[3-(1H-pyrazol-1-yl)benzyl]-1,2-dihydroisoquinoline-7-carboxamide] the inhibition at 0.37 µM was 100%.
`CS(=O)(=O)c1cccc(Cn2cnc3ccc(C(=O)NO)cc3c2=O)c1` [Compound I-135, N-hydroxy-3-[3-(methylsulfonyl)benzyl]-4-oxo-3,4-dihydroquinazoline-6-carboxamide] showed an inhibition at 0.37 µM of 95.3%.
Work on `CCN1CCC(CCn2ccc3ccc(C(=O)NO)cc3c2=O)CC1` [Compound I-315, 2-[2-(1-ethylpiperidin-4-yl)ethyl]-N-hydroxy-1-oxo-1,2-dihydroisoquinoline-7-carboxamide] yielded an inhibition at 0.37 µM of 90.1%.
`O=C(NO)c1ccc2ncn(CCc3cccc(-c4ccccc4C(F)(F)F)c3)c(=O)c2c1` [Compound I-325, N-hydroxy-4-oxo-3-{2-[2′-(trifluoromethyl)biphenyl-3-yl]ethyl}-3,4-dihydroquinazoline-6-carboxamide] was tested, and the inhibition at 0.37 µM was 42.1%.
With `O=C(NO)c1ccc2ncn(Cc3cccc(-c4cc5ccccc5s4)c3)c(=O)c2c1` [Compound I-268, 3-[3-(1-benzothien-2-yl)benzyl]-N-hydroxy-4-oxo-3,4-dihydroquinazoline-6-carboxamide] the inhibition at 0.37 µM was 93.2%.
Molecule `CN(C)Cc1cn(Cc2ccccc2)c(=O)c2cc(C(=O)NO)ccc12` [Compound I-419, 2-benzyl-4-[(dimethylamino)methyl]-N-hydroxy-1-oxo-1,2-dihydroisoquinoline-7-carboxamide] has an inhibition at 0.37 µM of 23.2%.
`O=C(NO)c1ccc2ncn(CCc3cccc(-c4c(Cl)cccc4Cl)c3)c(=O)c2c1` [Compound I-313, 3-[2-(2′,6′-dichlorobiphenyl-3-yl)ethyl]-N-hydroxy-4-oxo-3,4-dihydroquinazoline-6-carboxamide] showed an inhibition at 0.37 µM of 73.2%.
`O=C(NO)c1ccc2ncn(Cc3cccc(-c4cccc(OC(F)(F)F)c4)c3)c(=O)c2c1` [Compound I-37, N-hydroxy-4-oxo-3-{[3′-(trifluoromethoxy)biphenyl-3-yl]methyl}-3,4-dihydroquinazoline-6-carboxamide] was tested, and the inhibition at 0.37 µM was 89.8%.
`Cc1ccc(CCc2nc3cc(C(=O)NO)ccc3c(=O)[nH]2)o1` [Compound I-412, N-hydroxy-2-[2-(5-methyl-2-furyl)ethyl]-4-oxo-3,4-dihydroquinazoline-7-carboxamide] gave an inhibition at 0.37 µM of 93%.
`COc1cccc(-c2cccc(CCn3cnc4ccc(C(=O)NO)cc4c3=O)c2)c1` [Compound I-339, N-hydroxy-3-[2-(3′-methoxybiphenyl-3-yl)ethyl]-4-oxo-3,4-dihydroquinazoline-6-carboxamide] gave an inhibition at 0.37 µM of 89.9%.
Molecule `CN(C)S(=O)(=O)c1cccc(-c2cccc(CCn3cnc4ccc(C(=O)NO)cc4c3=O)c2)c1` [Compound I-309, 3-(2-{3′-[(dimethylamino)sulfonyl]biphenyl-3-yl}ethyl)-N-hydroxy-4-oxo-3,4-dihydroquinazoline-6-carboxamide] has an inhibition at 0.37 µM of 83.8%.
`CC(c1ccccc1)n1cnc2ccc(C(=O)NO)cc2c1=O` (centres unmarked) [Compound I-12, N-hydroxy-4-oxo-3-(1-phenylethyl)-3,4-dihydroquinazoline-6-carboxamide] gave an inhibition at 0.37 µM of 99.2%.
`O=C(NO)c1ccc2ncn(Cc3cccc(-c4cccc(C(=O)NC5CC5)c4)c3)c(=O)c2c1` [Compound I-126, 3-({3′-[(cyclopropylamino)carbonyl]biphenyl-3-yl}methyl)-N-hydroxy-4-oxo-3,4-dihydroquinazoline-6-carboxamide] showed an inhibition at 0.37 µM of 95.6%.

Same assay, conditions: compound concentration 0.412 μM, read-out: Percent Inhibition
With `O=C(NO)c1ccc2ccn(Cc3ccccc3C(F)(F)F)c(=O)c2c1` [Compound I-172, N-hydroxy-1-oxo-2-[2-(trifluoromethyl)benzyl]-1,2-dihydroisoquinoline-7-carboxamide] the inhibition at 0.412 µM was 94.5%.
Molecule `O=C(NO)c1ccc2c(=O)[nH]c(CNC3CCNCC3)nc2c1` [Compound I-146, N-hydroxy-4-oxo-2-[(piperidin-4-ylamino)methyl]-3,4-dihydroquinazoline-7-carboxamide] has an inhibition at 0.412 µM of 65.7%.
`CCC(C)Cn1ccc2ccc(C(=O)NO)cc2c1=O` (centres unmarked) [Compound I-255, N-hydroxy-2-(2-methylbutyl)-1-oxo-1,2-dihydroisoquinoline-7-carboxamide] showed an inhibition at 0.412 µM of 85.6%.
`NCCn1ccc2ccc(C(=O)NO)cc2c1=O` [Compound I-207, 2-(2-aminoethyl)-N-hydroxy-1-oxo-1,2-dihydroisoquinoline-7-carboxamide] showed an inhibition at 0.412 µM of 59.5%.
Molecule `O=C(NO)c1ccc2ccn(C3CCCC3)c(=O)c2c1` [Compound I-105, 2-cyclopentyl-N-hydroxy-1-oxo-1,2-dihydroisoquinoline-7-carboxamide] has an inhibition at 0.412 µM of 86.5%.
With `CCCCC(CC)Cn1ccc2ccc(C(=O)NO)cc2c1=O` (centres unmarked) [Compound I-94, 2-(2-ethylhexyl)-N-hydroxy-1-oxo-1,2-dihydroisoquinoline-7-carboxamide] the inhibition at 0.412 µM was 93.5%.
For `O=C(NO)c1ccc2ccn(CCc3cccc4ccccc34)c(=O)c2c1` [Compound I-251, N-hydroxy-2-[2-(1-naphthyl)ethyl]-1-oxo-1,2-dihydroisoquinoline-7-carboxamide], the inhibition at 0.412 µM was 96.6%.
With `O=C(NO)c1ccc2ccn(Cc3ccc4ccccc4c3)c(=O)c2c1` [Compound I-5, N-hydroxy-2-(2-naphthylmethyl)-1-oxo-1,2-dihydroisoquinoline-7-carboxamide] the inhibition at 0.412 µM was 96.5%.
Molecule `O=C(NO)c1ccc2ncn(CC3CC3)c(=O)c2c1` [Compound I-25, 3-(cyclopropylmethyl)-N-hydroxy-4-oxo-3,4-dihydroquinazoline-6-carboxamide] has an inhibition at 0.412 µM of 84.7%.
`O=C(NO)c1ccc2ccn(CC(c3ccccc3)C3CCCCC3)c(=O)c2c1` (centres unmarked) [Compound I-96, 2-(2-cyclohexyl-2-phenylethyl)-N-hydroxy-1-oxo-1,2-dihydroisoquinoline-7-carboxamide] was tested, and the inhibition at 0.412 µM was 80.9%.
`O=C(NO)c1ccc2c(=O)n(Cc3ccccc3)c(=O)[nH]c2c1` [Compound I-194, 3-benzyl-N-hydroxy-2,4-dioxo-1,2,3,4-tetrahydroquinazoline-7-carboxamide] gave an inhibition at 0.412 µM of 36.1%.
In the case of `Cc1nc(-c2ccccc2OCCCn2ccc3ccc(C(=O)NO)cc3c2=O)cs1` [Compound I-183, N-hydroxy-2-{3-[2-(2-methyl-1,3-thiazol-4-yl)phenoxy]propyl}-1-oxo-1,2-dihydroisoquinoline-7-carboxamide], the inhibition at 0.412 µM is reported as 67.4%.
In the case of `O=C(NO)c1ccc2ccn(Cc3cccc(Oc4ccc(F)cc4)c3)c(=O)c2c1` [Compound I-98, 2-[3-(4-fluorophenoxy)benzyl]-N-hydroxy-1-oxo-1,2-dihydroisoquinoline-7-carboxamide], the inhibition at 0.412 µM is reported as 91%.
Molecule `O=C(NO)c1ccc2ccn(CCNc3ccc(Cl)cc3)c(=O)c2c1` [Compound I-113, 2-{2-[(4-chlorophenyl)amino]ethyl}-N-hydroxy-1-oxo-1,2-dihydroisoquinoline-7-carboxamide] has an inhibition at 0.412 µM of 95.6%.
In the case of `O=C(NO)c1ccc2ccn(Cc3ccc(OC(F)(F)F)cc3)c(=O)c2c1` [Compound I-190, N-hydroxy-1-oxo-2-[4-(trifluoromethoxy)benzyl]-1,2-dihydroisoquinoline-7-carboxamide], the inhibition at 0.412 µM is reported as 92.9%.
`O=C(NO)c1ccc2ccn(Cc3cc(F)cc(F)c3)c(=O)c2c1` [Compound I-119, 2-(3,5-difluorobenzyl)-N-hydroxy-1-oxo-1,2-dihydroisoquinoline-7-carboxamide] gave an inhibition at 0.412 µM of 95.5%.
With `O=C(NO)c1ccc2ccn(Cc3ccccc3Cl)c(=O)c2c1` [Compound I-162, 2-(2-chlorobenzyl)-N-hydroxy-1-oxo-1,2-dihydroisoquinoline-7-carboxamide] the inhibition at 0.412 µM was 94.2%.
Work on `O=C(NO)c1ccc2ccn(CCCOc3ccc(-c4csnn4)cc3)c(=O)c2c1` [Compound I-90, N-hydroxy-1-oxo-2-{3-[4-(1,2,3-thiadiazol-4-yl)phenoxy]propyl}-1,2-dihydroisoquinoline-7-carboxamide] yielded an inhibition at 0.412 µM of 97.7%.
In the case of `CC(C)(C)c1ccc(Cn2cnc3ccc(C(=O)NO)cc3c2=O)cc1` [Compound I-288, 3-(4-tert-butylbenzyl)-N-hydroxy-4-oxo-3,4-dihydroquinazoline-6-carboxamide], the inhibition at 0.412 µM is reported as 94.9%.

From patent US8765773B2, “Substituted hydroxamic acids and uses thereof” (Millennium Pharmaceuticals, Inc., priority 2010, dated 2014)
